Earlier results as cited in patent publication US8409558B2, “Method for treatment of onychomycosis” (priority 2005, dated 2013).

Tested on: onychomycosis (nail fungus)

CN(C/C=C/C#CC(C)(C)C)Cc1cccc2ccccc12 [Lamisil, terbinafine]
complete cure (continuous oral therapy): 41% | mycological cure (continuous oral therapy): 71% | cure of all nails (complete cure of all nails after 1 yr; % effective) (oral therapy, Warshaw et al. JAAD October 2005): 25%
